Where “and” joins values, the source holds several entries; their conditions need not be identical. Equal entries are not always repeated.
Columns and labels:
Assay type in all cases: cell-based
320 non-olfactory GPCRs [1] = target: 320 non-olfactory GPCRs (Homo sapiens, UniProt P41145); conditions: receptor OPRK1; replicate values, Fig_4g
320 non-olfactory GPCRs [2] = target: 320 non-olfactory GPCRs (Homo sapiens, UniProt O95665); conditions: receptor NTSR2; replicate values, Fig_4g
320 non-olfactory GPCRs [3] = target: T1, 320 non-olfactory GPCRs (Homo sapiens, UniProt P46091)
T1 construct: expressed in transfected cells; host or cells: HTLA cells

320 non-olfactory GPCRs [4] = target: T2, 320 non-olfactory GPCRs (Homo sapiens, UniProt Q86SM5); conditions: receptor MRGPRG; replicate values, Fig_4g
T2 construct: expressed in transfected cells; host or cells: HTLA cells
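Throughout, for Fold of Basal: compound tested at 1 µM final concentration.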
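Throughout, for GPCRome agonism screen response: fold over basal response of each receptor without drug.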

T1 sequence (P46091 whole entry): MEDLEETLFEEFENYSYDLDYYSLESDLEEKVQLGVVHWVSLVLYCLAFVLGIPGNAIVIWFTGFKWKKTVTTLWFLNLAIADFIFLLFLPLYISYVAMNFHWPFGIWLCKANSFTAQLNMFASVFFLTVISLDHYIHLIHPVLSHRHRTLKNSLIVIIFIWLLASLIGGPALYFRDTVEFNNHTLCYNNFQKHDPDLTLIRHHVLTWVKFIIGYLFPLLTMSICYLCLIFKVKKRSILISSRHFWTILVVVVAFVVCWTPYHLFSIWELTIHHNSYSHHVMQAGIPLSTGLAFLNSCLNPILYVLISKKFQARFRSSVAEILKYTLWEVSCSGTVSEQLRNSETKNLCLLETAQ
320 non-olfactory GPCRs (Homo sapiens, UniProt P41145), sequence (P41145 whole entry): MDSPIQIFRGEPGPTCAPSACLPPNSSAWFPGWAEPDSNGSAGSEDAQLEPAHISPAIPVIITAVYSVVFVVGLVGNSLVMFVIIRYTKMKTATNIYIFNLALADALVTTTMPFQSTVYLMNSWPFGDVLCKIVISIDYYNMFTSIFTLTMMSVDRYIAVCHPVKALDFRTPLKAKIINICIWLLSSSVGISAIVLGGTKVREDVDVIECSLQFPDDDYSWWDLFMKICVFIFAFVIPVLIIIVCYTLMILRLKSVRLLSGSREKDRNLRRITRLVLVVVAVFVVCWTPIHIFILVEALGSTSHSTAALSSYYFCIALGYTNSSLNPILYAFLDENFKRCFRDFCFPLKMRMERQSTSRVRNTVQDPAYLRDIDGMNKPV
T2 sequence (Q86SM5 whole entry): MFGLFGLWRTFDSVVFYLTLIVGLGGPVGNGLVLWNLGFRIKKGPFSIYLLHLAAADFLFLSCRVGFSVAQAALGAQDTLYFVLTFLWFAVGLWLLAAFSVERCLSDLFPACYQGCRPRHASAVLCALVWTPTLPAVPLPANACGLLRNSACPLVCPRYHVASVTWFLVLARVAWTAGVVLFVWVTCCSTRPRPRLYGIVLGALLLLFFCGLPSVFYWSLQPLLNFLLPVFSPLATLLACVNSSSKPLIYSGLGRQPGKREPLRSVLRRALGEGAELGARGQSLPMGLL
320 non-olfactory GPCRs (Homo sapiens, UniProt O95665), sequence (O95665 whole entry): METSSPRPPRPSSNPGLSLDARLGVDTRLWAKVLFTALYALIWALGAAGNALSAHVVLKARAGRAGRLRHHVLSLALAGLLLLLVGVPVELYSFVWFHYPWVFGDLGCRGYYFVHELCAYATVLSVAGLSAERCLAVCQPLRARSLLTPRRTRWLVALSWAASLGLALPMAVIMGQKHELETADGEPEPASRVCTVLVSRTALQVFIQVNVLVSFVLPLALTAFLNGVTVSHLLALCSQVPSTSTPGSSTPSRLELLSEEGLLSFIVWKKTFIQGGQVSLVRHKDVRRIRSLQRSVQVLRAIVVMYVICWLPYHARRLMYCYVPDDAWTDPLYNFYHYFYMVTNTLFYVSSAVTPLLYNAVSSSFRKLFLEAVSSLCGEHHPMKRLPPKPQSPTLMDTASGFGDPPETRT

## CCOc1cccc2cc(C(C)NCC3(O)CCCCC3)oc12 (stereo not shown) [O4LE6]
320 non-olfactory GPCRs [1]
  GPCRome agonism screen response: 0.2798 and 2.137 and 1.223 and 1.286
320 non-olfactory GPCRs [2]
  GPCRome agonism screen response: 0.5368 and 0.5673 and 0.48 and 0.67
320 non-olfactory GPCRs [3]
  Fold of Basal: 1.745 and 1.544 and 1.297 and 1.2172
320 non-olfactory GPCRs [4]
  GPCRome agonism screen response: 0.767 and 0.7489 and 0.544 and 0.824
